Experimental data: the NIST ThermoML archive (doi:10.1021/je200972w)
Numbers after ± are expanded uncertainties.

Conditions: Liquid, Ebulliometric method (Recirculating still)

Structure (SMILES)	vapor or sublimation pressure (329 K) [kPa]	vapor or sublimation pressure (337.42 K) [kPa]
CC(C)=O [acetone]	100 ± 0.7	–
CO [methanol]	–	100 ± 0.7
